Source: ChEMBL document CHEMBL1140357, “Discovery of hydroxamic acid analogs as dual inhibitors of phosphodiesterase-1 and -5” (Bioorg Med Chem Lett, 2005)

Key:
[1] = target: cGMP-specific 3',5'-cyclic phosphodiesterase (Homo sapiens, UniProt O76074); test: Inhibitory concentration against Phosphodiesterase type 5
[2] = target: Phosphodiesterase 1 (Homo sapiens, UniProt P54750+Q01064+Q14123); test: Inhibitory concentration against Phosphodiesterase type 1; type: protein assay

Compound	IC50 [1]	IC50 [2]
CCc1cc(C(C)=O)c(O)cc1OCc1cccc(C(=O)NC(CO)CC(=O)O)n1 (centres undefined)	9.46 µM	
CCc1cc(C(C)=O)c(O)cc1OCc1cccc(C(=O)NC(Cc2ccc(O)cc2)C(=O)O)n1 (centres undefined)	3.68 µM	
CCCCC(C(=O)NO)c1csc(NC(=O)c2cccc(COc3ccccc3)n2)n1 (centres undefined)	0.27 µM	0.2 µM
O=C(O)CCC(CCC(=O)O)(C(=O)O)c1csc(NC(=O)c2cccc(COc3ccccc3)n2)n1	9.28 µM	> 10 µM
O=C(O)Cc1cccc(NC(=O)c2cccc(COc3ccccc3)n2)n1	9.43 µM	> 10 µM
CCc1cc(C(C)=O)c(O)cc1OCc1cccc(C(=O)NC(CO)C(=O)OCc2ccccc2)n1 (centres undefined)	8.62 µM	
CCCCCCCC(=O)OCC(NC(=O)c1cccc(COc2cc(O)c(C(C)=O)cc2CC)n1)C(=O)O (centres undefined)	3.28 µM	
CCc1cc(C(C)=O)c(O)cc1OCc1cccc(C(=O)Nc2nn[nH]n2)n1	5.15 µM	
CCc1cc(C(C)=O)c(O)cc1OCc1cccc(C(=O)NC(CO)CCC(=O)OC)n1 (centres undefined)	2.64 µM	
O=C(Cc1cccc(NC(=O)c2cccc(COc3ccccc3)n2)n1)NO	0.04 µM	> 10 µM
COc1ccc(NC(=O)c2cccc(COc3ccccc3)n2)cc1C(=O)NO	3.5 µM	> 10 µM
O=C(O)Cc1cccc(NC(=O)c2cccc(COc3ccccc3)n2)c1	10 µM	> 10 µM
O=C(Cc1csc(NC(=O)Cc2cccc(C(F)(F)F)c2)n1)NO	2.07 µM	> 10 µM
O=C(Cc1cccc(NC(=O)c2cccc(COc3ccccc3)n2)c1)NO	0.013 µM	2.41 µM
O=C(NO)c1cccc(NC(=O)c2cccc(COc3ccccc3)n2)n1	1.47 µM	> 10 µM
O=C(Cc1csc(NC(=O)CCC(=O)c2ccccc2)n1)NO	4.52 µM	> 10 µM
CCC(C(=O)Nc1nc(CC(=O)NO)cs1)c1ccccc1 (centres undefined)	6.19 µM	> 10 µM
CC(C)C(C(=O)NO)c1csc(NC(=O)c2cccc(COc3ccccc3)n2)n1 (centres undefined)	2.42 µM	3.9 µM
CCCCCCC(C(=O)O)c1csc(NC(=O)c2cccc(COc3ccccc3)n2)n1 (centres undefined)	4.58 µM	> 10 µM
CCc1cc(C(C)=O)c(O)cc1OCc1cccc(C(=O)NC(Cc2cnc[nH]2)C(=O)OC)n1 (centres undefined)	9.07 µM	
O=C(Nc1nc(C2(C(=O)NO)CC2)cs1)c1cccc(COc2ccccc2)n1	0.89 µM	0.63 µM
O=C(Cc1csc(NC(=O)COc2ccc(Cl)cc2)n1)NO	1.69 µM	1.81 µM
Cc1cccc(C(=O)Nc2nc(CC(=O)NO)cs2)c1Br	8.43 µM	3.87 µM
COc1ccc2c(c1)C(CC(=O)Nc1nc(CC(=O)NO)cs1)CC2=O (centres undefined)	3.16 µM	> 10 µM
CCc1cc(C(C)=O)c(O)cc1OCc1cccc(C(=O)NCCCCCC(=O)O)n1	7.65 µM	

Compound	IC50 [1]	IC50 [2]
O=C(Cc1csc(NC(=O)Nc2cccc3ccccc23)n1)NO	3.81 µM	> 10 µM
CCCCC(C(=O)O)c1csc(NC(=O)c2cccc(COc3ccccc3)n2)n1 (centres undefined)	6.49 µM	> 10 µM
O=C(Cc1csc(NC(=O)c2ccccn2)n1)NO	3.2 µM	7.1 µM
CCc1cc(C(C)=O)c(O)cc1OCc1cccc(C(=O)NC(C)C(=O)NO)n1 (centres undefined)	0.35 µM	
O=C(Nc1nc(C(Cc2ccccc2)C(=O)O)cs1)c1cccc(COc2ccccc2)n1 (centres undefined)	10 µM	> 10 µM
O=C(Nc1nc(C(Cc2ccccc2)C(=O)NO)cs1)c1cccc(COc2ccccc2)n1 (centres undefined)	0.83 µM	1.36 µM
Cc1nc(NC(=O)c2cccc(COc3ccccc3)n2)sc1C(=O)NO	0.77 µM	> 10 µM
CCc1cc(C(C)=O)c(O)cc1OCc1cccc(C(=O)N[C@@H](C)C(=O)O)n1	0.46 µM	
O=C(Cc1csc(NC(=O)c2cccc(C(=O)c3ccccc3)c2)n1)NO	3.41 µM	1.72 µM
O=C(O)CCC(C(=O)O)c1csc(NC(=O)c2cccc(COc3ccccc3)n2)n1 (centres undefined)	10 µM	> 10 µM
CCc1cc(C(C)=O)c(O)cc1OCc1cccc(C(=O)NC(CO)CC(=O)OC)n1 (centres undefined)	3.1 µM	
O=C(Nc1nc(C2(C(=O)O)CC2)cs1)c1cccc(COc2ccccc2)n1	8.58 µM	> 10 µM
CCc1cc(C(C)=O)c(O)cc1OCc1cccc(C(=O)NC(CC(=O)O)c2ccccc2)n1 (centres undefined)	1.45 µM	
CCOC(=O)CC(NC(=O)c1cccc(COc2cc(O)c(C(C)=O)cc2CC)c1)C(=O)OCC (centres undefined)	0.65 µM	
CCc1cc(C(C)=O)c(O)cc1OCc1cccc(C(=O)NC(O)CC(=O)OC)n1 (centres undefined)	6.07 µM	
O=C(NO)C(=O)c1csc(NC(=O)c2cccc(COc3ccccc3)n2)n1	2.2 µM	> 10 µM
CCc1cc(C(C)=O)c(O)cc1OCc1cccc(C(=O)Nc2nc(CC(=O)O)cs2)c1	0.63 µM	
CCc1cc(C(C)=O)c(O)cc1OCc1cccc(C(=O)N[C@H](C)C(=O)O)n1	1.03 µM	
Cc1sc(NC(=O)c2cccc(COc3ccccc3)n2)nc1CC(=O)NO	0.04 µM	4.52 µM
O=C(Cc1csc(NC(=O)C2C=CN(c3ccccc3)c3ccccc32)n1)NO (centres undefined)	0.79 µM	0.38 µM
CCc1cc(C(C)=O)c(O)cc1OCc1cccc(C(=O)NC(CO)(CO)CO)n1	8.91 µM	
C=CCN(CCC(=O)O)C(=O)c1cccc(COc2cc(O)c(C(C)=O)cc2CC)n1	0.87 µM	
Cc1c(NC(=O)c2cccc(COc3ccccc3)n2)cccc1C(=O)NO	2.66 µM	> 10 µM
CCc1cc(C(C)=O)c(O)cc1OCc1cccc(C(=O)NC(C(=O)OC)C(C)O)n1 (centres undefined)	3.35 µM	
CCc1cc(C(C)=O)c(O)cc1OCc1cccc(C(=O)NCCC(=O)O)n1	0.27 µM	

Compound	IC50 [1]	IC50 [2]
O=C(Cc1csc(NC(=O)c2cnc3ccccc3n2)n1)NO	1.84 µM	> 10 µM
COc1cc(OC)c(OC)c(C(=O)Nc2nc(CC(=O)NO)cs2)c1	2.58 µM	> 10 µM
COc1ccc2c(c1)OC(=O)CC2CC(=O)Nc1nc(CC(=O)NO)cs1 (centres undefined)	5.99 µM	> 10 µM
CC(C)(C(=O)NO)c1csc(NC(=O)c2cccc(COc3ccccc3)n2)n1	0.52 µM	0.67 µM
O=C(Cc1csc(NC(=O)COc2ccccc2)n1)NO	5.62 µM	> 10 µM
COc1ccc2c(c1)c(CC(=O)Nc1nc(CC(=O)NO)cs1)c(C)n2C(=O)c1ccc(Cl)cc1	1.28 µM	2.8 µM
CCc1cc(C(C)=O)c(O)cc1OCc1cccc(C(=O)N(CC)CCCCCCCCC(N)=O)n1	1.21 µM	
CCc1cc(C(C)=O)c(O)cc1OCc1cccc(C(=O)NC(C)C(=O)O)c1 (centres undefined)	0.13 µM	
CCc1cc(C(C)=O)c(O)cc1OCc1cccc(C(=O)N(CCCCCCCCC(N)=O)C(C)CC)n1 (centres undefined)	3.3 µM	
O=C(Nc1nc(C2(C(=O)NO)CCOCC2)cs1)c1cccc(COc2ccccc2)n1	2.49 µM	2.93 µM
CCc1cc(C(C)=O)c(O)cc1OCc1cccc(C(=O)NC(C)C(=O)OC)c1 (centres undefined)	2.13 µM	
CCc1cc(C(C)=O)c(O)cc1OCc1cccc(C(=O)NC(C(=O)O)C(C)C)n1 (centres undefined)	1.24 µM	
CCc1cc(C(C)=O)c(O)cc1OCc1cccc(C(=O)NCC(=O)O)c1	0.92 µM	
CCc1cc(C(C)=O)c(O)cc1OCc1cccc(C(=O)NCC(O)c2ccc(O)cc2)n1 (centres undefined)	3.19 µM	
Cc1cc(C)cc(C(=O)Nc2nc(CC(=O)NO)cs2)c1	1.83 µM	> 10 µM
O=C(Cc1csc(NC(=O)c2cccc3ccccc23)n1)NO	1.1 µM	1 µM
O=C(Cc1csc(NC(=O)c2cnccc2Oc2ccc(Cl)cc2)n1)NO	0.32 µM	2.67 µM
O=C(Cc1csc(NC(=O)c2ccc(Cl)cc2Cl)n1)NO	4.25 µM	> 10 µM
CCc1cc(C(C)=O)c(O)cc1OCc1cccc(C(=O)Nc2ccc(OCC(=O)O)cc2)n1	3.1 µM	
O=C(Cc1csc(NC(=O)c2cccc(SC(F)(F)F)c2)n1)NO	0.43 µM	1.72 µM
Cc1nc(NC(=O)c2cccc(COc3ccccc3)n2)sc1C(=O)O	4.99 µM	4.48 µM
O=C(Nc1nc(C2(C(=O)O)CCOCC2)cs1)c1cccc(COc2ccccc2)n1	10 µM	> 10 µM
CCC(=O)OCC(NC(=O)c1cccc(COc2cc(O)c(C(C)=O)cc2CC)n1)C(=O)O (centres undefined)	6.68 µM	
CCc1cc(C(C)=O)c(O)cc1OCc1cccc(C(=O)NC2COC(=O)C2)n1 (centres undefined)	7.82 µM	
CCc1cc(C(C)=O)c(O)cc1OCc1cccc(C(=O)NC(CO)C(=O)O)c1 (centres undefined)	0.68 µM	
